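A five-concentration, 48-hour dose response in 96-well plates underlies each endpoint, interpolated linearly between surrounding concentrations. Abbreviation: GI50, concentration required for 50% inhibition of growth. The concentration for full growth arrest is given as TGI.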
How the values were obtained:
Test in all cases: NCI tumour cell line growth inhibition, 48 h
[1] = test system: UACC-257 melanoma
[2] = test system: CAKI-1 renal
[3] = test system: RXF 393 renal
[4] = test system: HT29 colon
[5] = test system: HOP-62 NSCLC
[6] = test system: SR leukemia
[7] = test system: KM12 colon
[8] = test system: HCC-2998 colon
[9] = test system: OVCAR-3 ovarian
[10] = test system: NCI/ADR-RES ovarian

Compound	TGI [1] [µM]	TGI [2] [µM]	TGI [3] [µM]	TGI [4] [µM]	TGI [5] [µM]	TGI [6] [µM]	TGI [7] [µM]	TGI [8] [µM]	TGI [9] [µM]	GI50 [2] [µM]	GI50 [3] [µM]	GI50 [10] [µM]	TGI [10] [µM]	GI50 [4] [µM]	GI50 [5] [µM]	GI50 [7] [µM]	GI50 [8] [µM]	GI50 [9] [µM]	GI50 [1] [µM]	GI50 [6] [µM]
CCOC(=N)CC(=O)Nc1cccc(Cl)c1	> 100	> 100	> 100	> 100	> 100	> 100	> 100	> 100	> 100											
Cn1c2ccccc2c2c3[nH][nH]c(=O)c3c3c4ccccc4[nH]c3c21		> 100	3.57	50.8	10.4		10.5	8.1	7.8	2.22	1.51	4.02	37.5	3.13	3.11	0.493	2.74	1.94		
COc1c(-c2ccc(O)c(O)c2)oc2c(O)c(O)cc(O)c2c1=O	> 100	> 100		39.8	67.4	50.8	> 100	> 100	> 100				> 100							
CCCCc1n(Cc2ccc3ccccc3c2)cc[n+]1Cc1ccc2ccccc2c1	2.32		2.49								1.19	15.8	39.8						1.04	
COc1ccc(-c2cc(-c3cc(Cl)cc(Br)c3O)[nH]c(=O)n2)cc1	42.2	37.2	31.7	39.4	28.1	51.8	41.3	45.5	31.5											
Cc1ccc(NC(=S)SCCC(=O)O)cc1	> 100	> 100	> 100	> 100	> 100	> 100	> 100	> 100	> 100											
COc1cc2c(cc1OC)NC(=O)NC(Cc1ccc3c(c1)OCO3)CC2 (configuration not stated)	> 100	> 100	> 100		> 100		> 100	> 100	> 100											
CCN(CC)C(=O)N1CCN(C=S)CC1	> 100		> 100	> 100	> 100	> 100	> 100	> 100	> 100											
CSc1nc(NC2OC(COC(C)=O)C(OC(C)=O)C(OC(C)=O)C2OC(C)=O)c(-c2csc(N)n2)c(=O)n1C (configuration not stated)	> 100	> 100		> 100	66.9	> 100	> 100		> 100											
Clc1ccc2nc(-c3ccccc3)nc(Cl)c2c1	> 100	54.9	48.6	> 100	79.9	> 100	> 100	> 100	> 100											
N=C(N)c1ccc(NCCOCCNc2ccc(C(=N)N)cc2)cc1	> 100	> 100		> 100	> 100	> 100	> 100	> 100	> 100	> 100		78.5	> 100	29.5	33.2	43.8	41.9	69.1	> 100	49
COc1ccc2c(c1)CC1c3c(ccc(OC)c3O)CC2N1C (configuration not stated)	50.6	> 100	43.6	57.5	> 100	45.4	> 89.8	30.8	> 100											
CC1=C(Cl)C=CP(=O)(OC(C)C)C1 (configuration not stated)	> 100		> 100	> 100	> 100	> 100	> 100	> 100	> 100											
Cc1cc2nc3cc(C)c(N)cc3[n+](-c3ccccc3)c2cc1N	12	> 100	> 100	> 100	> 100		17.6	> 46	> 95.7	> 100	17.5	> 100	> 100	7.3	3.7	2.07	4.05	2.98	1.85	
COC(=O)C1C=NNC1C(=O)OC (configuration not stated)	> 100	> 100	> 100	> 100	> 100		> 100	> 100	> 100											
O=[N+]([O-])c1ccccc1C=NC12CC3CC(CC(C3)C1)C2	> 100	> 100	> 100	> 100	> 100		> 100	> 100	> 100											
O=c1c(Br)cc2c(-c3ccccc3)c3cc(Br)c(O)c(Br)c3oc-2c1Br	> 100	> 100	> 100	39.4	> 100		> 100	> 100	> 100				> 100							
CCCCN(CCCC)CCC(O)c1cc2c(Cl)cc(Cl)cc2c2cc(C(F)(F)F)ccc12 (configuration not stated)	29.6	29.3		34.9	21.9	28.9		24.2	23.7				26.1							
O=C1Nc2ccccc2/C1=C\c1nc(C2CCN(S(=O)(=O)c3ccc(F)cc3)CC2)n2ccccc12		> 100		> 100	6.37	> 100		> 100	11.1	1.73		3.43	> 100	> 100	2.06		> 100	2.72		> 100
O=c1c(NO)c([N+](=O)[O-])cnn1-c1ccccc1	13.4	11.2	12.3	6.14	23.1		23.5	9.86	5.76											

From PubChem BioAssay (NCI)
